According to patent publication US20260364184A1, “COMPOUND BASED ON OXOISOINDOLINYL-SUBSTITUTED TETRAHYDROPYRIMIDINE-DIONE AND USE THEREOF” (GLUETACS THERAPEUTICS (SHANGHAI) CO., LTD., priority 2023, published 2026):
Values belong to the molecule of their own block, whether it stands above or below them.

How the values were obtained:
Type in all cases: cell-based
EZH2 = target: T1, EZH2 (Homo sapiens, UniProt Q15910+Q96SW2); assay: Western blot degradation of EZH2; settings: hPBMC Cell; 24 hours
T1 construct: expression of target proteins in cells; endogenous in cells
T1 sequence (Q15910 whole entry): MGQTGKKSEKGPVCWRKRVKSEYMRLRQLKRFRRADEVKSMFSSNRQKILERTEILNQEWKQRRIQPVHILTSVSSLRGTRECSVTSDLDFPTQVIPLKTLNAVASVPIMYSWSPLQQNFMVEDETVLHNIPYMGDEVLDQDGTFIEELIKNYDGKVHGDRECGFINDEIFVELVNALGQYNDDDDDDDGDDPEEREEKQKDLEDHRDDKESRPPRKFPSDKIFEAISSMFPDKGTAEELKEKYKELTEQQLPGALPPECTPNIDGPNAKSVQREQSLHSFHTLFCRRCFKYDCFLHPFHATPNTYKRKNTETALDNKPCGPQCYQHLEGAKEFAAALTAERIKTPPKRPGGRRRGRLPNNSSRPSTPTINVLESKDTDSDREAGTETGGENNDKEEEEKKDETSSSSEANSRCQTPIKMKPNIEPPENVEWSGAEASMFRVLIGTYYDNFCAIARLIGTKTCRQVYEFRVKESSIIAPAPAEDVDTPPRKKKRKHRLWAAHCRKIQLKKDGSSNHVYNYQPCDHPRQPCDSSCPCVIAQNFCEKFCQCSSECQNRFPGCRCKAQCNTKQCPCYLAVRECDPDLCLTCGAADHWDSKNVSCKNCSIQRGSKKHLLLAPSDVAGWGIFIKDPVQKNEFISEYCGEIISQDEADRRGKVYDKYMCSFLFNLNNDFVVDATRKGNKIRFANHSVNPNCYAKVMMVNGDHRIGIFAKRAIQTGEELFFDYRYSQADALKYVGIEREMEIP
T1 sequence (O75530 whole entry partner): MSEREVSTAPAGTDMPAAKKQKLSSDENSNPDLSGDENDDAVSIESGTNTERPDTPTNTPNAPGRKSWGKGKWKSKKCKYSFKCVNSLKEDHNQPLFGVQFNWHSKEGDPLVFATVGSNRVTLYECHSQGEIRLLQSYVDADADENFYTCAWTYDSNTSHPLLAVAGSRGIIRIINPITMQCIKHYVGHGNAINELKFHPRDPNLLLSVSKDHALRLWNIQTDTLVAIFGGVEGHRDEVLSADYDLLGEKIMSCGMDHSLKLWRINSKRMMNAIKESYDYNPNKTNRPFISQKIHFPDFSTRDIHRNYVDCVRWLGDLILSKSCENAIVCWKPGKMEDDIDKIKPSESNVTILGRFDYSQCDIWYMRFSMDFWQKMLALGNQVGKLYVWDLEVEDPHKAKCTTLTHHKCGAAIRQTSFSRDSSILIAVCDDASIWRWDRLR
T1 sequence (Q15022 whole entry partner): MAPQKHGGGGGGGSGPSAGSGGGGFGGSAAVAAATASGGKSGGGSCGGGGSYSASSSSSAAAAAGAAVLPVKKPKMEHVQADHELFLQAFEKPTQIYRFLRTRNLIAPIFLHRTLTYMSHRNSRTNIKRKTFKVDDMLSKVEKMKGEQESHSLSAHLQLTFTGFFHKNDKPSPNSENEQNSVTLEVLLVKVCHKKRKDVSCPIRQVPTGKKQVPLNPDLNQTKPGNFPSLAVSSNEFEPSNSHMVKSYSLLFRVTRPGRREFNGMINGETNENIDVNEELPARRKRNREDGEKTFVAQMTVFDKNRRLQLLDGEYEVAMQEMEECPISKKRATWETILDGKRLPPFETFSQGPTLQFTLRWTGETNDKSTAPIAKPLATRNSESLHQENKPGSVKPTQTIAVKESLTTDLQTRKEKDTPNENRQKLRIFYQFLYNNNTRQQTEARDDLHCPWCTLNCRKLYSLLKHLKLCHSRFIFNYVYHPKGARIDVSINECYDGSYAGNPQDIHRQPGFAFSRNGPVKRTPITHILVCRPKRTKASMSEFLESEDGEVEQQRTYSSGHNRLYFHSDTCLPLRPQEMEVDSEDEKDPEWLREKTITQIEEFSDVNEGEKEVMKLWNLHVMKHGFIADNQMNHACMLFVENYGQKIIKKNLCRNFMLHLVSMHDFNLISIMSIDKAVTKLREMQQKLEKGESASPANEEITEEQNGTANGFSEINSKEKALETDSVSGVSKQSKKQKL
T1 sequence (Q96SW2 whole entry): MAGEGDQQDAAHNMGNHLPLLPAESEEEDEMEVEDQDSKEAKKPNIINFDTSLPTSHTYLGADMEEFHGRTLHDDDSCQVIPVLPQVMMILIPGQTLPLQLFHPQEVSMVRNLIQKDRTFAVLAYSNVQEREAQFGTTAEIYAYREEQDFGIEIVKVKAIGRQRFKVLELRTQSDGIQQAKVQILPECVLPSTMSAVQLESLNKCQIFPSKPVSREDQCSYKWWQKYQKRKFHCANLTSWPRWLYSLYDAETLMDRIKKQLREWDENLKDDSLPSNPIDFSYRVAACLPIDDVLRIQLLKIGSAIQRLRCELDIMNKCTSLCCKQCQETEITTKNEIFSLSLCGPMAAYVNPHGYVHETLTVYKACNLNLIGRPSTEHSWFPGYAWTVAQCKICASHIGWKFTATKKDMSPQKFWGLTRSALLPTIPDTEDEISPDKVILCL
T1 sequence (Q16531 whole entry partner): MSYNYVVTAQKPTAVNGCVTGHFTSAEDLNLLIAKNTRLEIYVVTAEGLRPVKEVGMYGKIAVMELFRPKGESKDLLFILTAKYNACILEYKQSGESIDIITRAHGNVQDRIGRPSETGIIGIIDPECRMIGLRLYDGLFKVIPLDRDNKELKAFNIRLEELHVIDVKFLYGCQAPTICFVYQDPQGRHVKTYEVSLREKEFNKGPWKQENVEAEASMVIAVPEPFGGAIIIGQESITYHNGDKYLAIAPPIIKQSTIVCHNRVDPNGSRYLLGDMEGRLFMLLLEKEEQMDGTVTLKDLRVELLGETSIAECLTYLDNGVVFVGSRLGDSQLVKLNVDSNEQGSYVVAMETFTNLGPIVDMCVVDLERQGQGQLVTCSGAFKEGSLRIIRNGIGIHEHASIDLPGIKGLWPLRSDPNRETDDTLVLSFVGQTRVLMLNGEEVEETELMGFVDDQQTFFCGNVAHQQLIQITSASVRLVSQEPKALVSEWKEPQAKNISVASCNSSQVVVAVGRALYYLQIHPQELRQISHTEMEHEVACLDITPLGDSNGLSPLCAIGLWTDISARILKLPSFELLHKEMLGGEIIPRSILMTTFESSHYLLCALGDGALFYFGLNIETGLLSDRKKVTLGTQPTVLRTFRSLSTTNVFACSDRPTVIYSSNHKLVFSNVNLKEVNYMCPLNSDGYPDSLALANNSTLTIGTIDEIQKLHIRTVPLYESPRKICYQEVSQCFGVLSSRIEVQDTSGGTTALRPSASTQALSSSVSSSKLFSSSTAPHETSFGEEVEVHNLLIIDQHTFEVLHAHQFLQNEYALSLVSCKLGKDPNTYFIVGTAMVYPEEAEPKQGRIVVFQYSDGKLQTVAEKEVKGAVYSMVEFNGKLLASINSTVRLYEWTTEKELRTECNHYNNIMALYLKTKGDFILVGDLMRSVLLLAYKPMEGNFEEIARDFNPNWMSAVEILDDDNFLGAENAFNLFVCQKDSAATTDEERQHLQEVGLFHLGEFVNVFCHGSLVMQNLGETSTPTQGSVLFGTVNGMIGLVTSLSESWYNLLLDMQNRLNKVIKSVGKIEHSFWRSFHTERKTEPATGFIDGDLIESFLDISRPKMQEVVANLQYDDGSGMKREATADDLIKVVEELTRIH
Description: (§1) Conventional Western blot assay was performed to evaluate the effects of the compounds of the present disclosure on the expression of target proteins in cells.
(§2) (1) Cell Seeding and Protein Harvesting: The selected cells were processed according to the cell seeding procedure and protein harvesting procedure in Table II-2.
(§3) (2) To the collected supernatant, 5×SDS sample loading buffer was added, followed by denaturation at 95 °C for 5 minutes. The denatured samples were then separated by SDS-PAGE electrophoresis on a polyacrylamide gel. Proteins were transferred to a nitrocellulose membrane (0.45 μm NC membrane), blocked with blocking buffer at room temperature for 1 hour, and subjected to antibody incubation and development procedures according to the antibody manufacturer's instructions (Cell Signaling Technology).
(§4) Half-Maximal Degradation Concentration value (the drug concentration required for degrading proteins by 50%, abbreviated as DC50) reads method: comparing the grayscale values of Western blot bands from drug-treated samples with those from blank DMSO-treated controls, and identifying the drug concentration range at which the grayscale value is half that of the DMSO-treated control bands.
(§5) DC50 values can be calculated using ImageJ software to measure grayscale values of Western blot bands from drug-treated samples. The concentration-response curve is fitted to estimate the drug concentration corresponding to half the grayscale value.
(§6) Target protein remaining (%) refers to the percentage of target protein remaining in cells after treatment with protein degrader compounds.
(§7) Calculation method for target protein remaining (%): Use ImageJ software to measure grayscale values of Western blot bands from drug (protein degrader)-treated samples. The grayscale value of drug-treated bands is divided by that of internal control protein bands, and the resulting quotient is normalized to obtain the relative percentage of remaining target protein after protein degrader treatment.
(§8) Target protein degradation rate (%)=1−target protein remaining (%).

[1] = system: Human Multiple myeloma cell line (MM.1S); assay: Inhibition of MM.1S cell proliferation (CellTiter luminescent viability); settings: Homo sapiens, MM1.S, Table IG1, FAK inhibitor-based, 96 hours; for inhibition at 0.01 µM: 10 nM, read-out: Inhibition Rate at 10 nM (%); for inhibition at 0.5 µM: 500 nM, read-out: Inhibition Rate at 500 nM (%)
How it was run: (§9)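 Cells are seeded in 96-well plates, cultured at 37 °C, 5% CO2, and treated next day with 5-fold serial compound dilutions (stock series from 2000 μM; 0.5 μL into 100 μL medium). Viability is read by CellTiter-Meiluncell luminescence after the set exposure, and IC50 is taken from growth-inhibition curves.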

[2] = system: Human myeloid monocytic leukemia cell line (MV-4-11); assay: Inhibition of MV-4-11 cell proliferation (CellTiter luminescent viability); settings: Homo sapiens, MV4-11, Table IG2, FAK inhibitor-based, 96 hours; for inhibition at 0.01 µM: MV-4-11, 10 nM, read-out: Inhibition Rate at 10 nM (%); for inhibition at 0.5 µM: MV-4-11, 500 nM, read-out: Inhibition Rate at 500 nM (%)
How it was run: as §9

FAK = target: T2, FAK (Homo sapiens, UniProt Q05397); assay: Western blot degradation of FAK; settings: A549 Cell; 24 hours
T2 construct: expression of target proteins in cells; endogenous in cells
T2 sequence (Q05397 whole entry): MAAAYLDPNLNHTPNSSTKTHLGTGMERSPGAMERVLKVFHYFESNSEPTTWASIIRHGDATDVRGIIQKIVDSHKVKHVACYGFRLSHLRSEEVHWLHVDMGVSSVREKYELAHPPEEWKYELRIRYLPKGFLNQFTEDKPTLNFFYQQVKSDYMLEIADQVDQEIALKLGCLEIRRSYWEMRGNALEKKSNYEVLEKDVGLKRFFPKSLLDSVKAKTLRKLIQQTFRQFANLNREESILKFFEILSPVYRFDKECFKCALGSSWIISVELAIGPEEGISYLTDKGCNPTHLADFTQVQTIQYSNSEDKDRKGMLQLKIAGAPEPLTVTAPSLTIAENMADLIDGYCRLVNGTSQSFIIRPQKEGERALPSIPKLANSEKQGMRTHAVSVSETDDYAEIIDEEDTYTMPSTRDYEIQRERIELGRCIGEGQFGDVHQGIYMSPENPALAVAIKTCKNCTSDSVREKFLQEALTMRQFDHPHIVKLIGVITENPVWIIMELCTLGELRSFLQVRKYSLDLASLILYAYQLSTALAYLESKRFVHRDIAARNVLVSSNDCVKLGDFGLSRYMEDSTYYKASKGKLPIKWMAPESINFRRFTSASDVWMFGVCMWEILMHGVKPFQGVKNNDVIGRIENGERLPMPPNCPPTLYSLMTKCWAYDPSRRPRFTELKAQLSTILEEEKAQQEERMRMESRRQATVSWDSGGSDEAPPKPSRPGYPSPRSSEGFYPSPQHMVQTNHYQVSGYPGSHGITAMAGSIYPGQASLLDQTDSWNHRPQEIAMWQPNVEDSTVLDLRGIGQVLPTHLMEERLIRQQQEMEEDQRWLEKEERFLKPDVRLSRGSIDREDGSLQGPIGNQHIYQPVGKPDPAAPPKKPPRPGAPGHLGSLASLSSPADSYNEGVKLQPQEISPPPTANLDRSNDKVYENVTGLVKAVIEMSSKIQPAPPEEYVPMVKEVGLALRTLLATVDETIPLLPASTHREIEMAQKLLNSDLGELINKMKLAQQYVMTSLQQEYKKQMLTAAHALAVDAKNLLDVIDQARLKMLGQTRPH
Description: as §1, §2, §3, §4, §5, §6, §7, §8

[3] = system: Human breast cancer cell line (MDA-MB-231); assay: Inhibition of MDA-MB-231 cell proliferation (CellTiter luminescent viability); settings: Table IG3, FAK inhibitor-based, 96 hours; for inhibition at 0.01 µM: MDA-MB-231, 10 nM, read-out: Inhibition Rate at 10 nM (%); for inhibition at 0.5 µM: MDA-MB-231, 500 nM, read-out: Inhibition Rate at 500 nM (%)
Description: The tumor cells used herein were cultured in a cell culture medium listed in table 3 at 37 °C in an incubator with 5% CO2. Prior to experimentation, all cell lines used were correctly identified by STR profiling, and tested negative for mycoplasma contamination using a mycoplasma detection kit through routine screenings.
The IC50 values of the compounds of the present disclosure (including the compounds in Table 1, Table 2, and Examples 1-468) were determined using the CellTiter-Meiluncell Luminescent Cell Viability Assay Kit from Dalian Meilun Biotech Co., Ltd. The detailed procedure is as follows: Tumor cells were seeded in 96-well cell culture plates at the densities specified in Table 4. On the following day, the test compounds of the present disclosure were subjected to serial dilution. The dilution can be performed according to one of the following two methods: • (1) The first dilution method: The test compounds of the present disclosure (including the compounds in Table 1, Table 2, and Examples 1-468) were subjected to 5-fold serial dilutions starting from a highest concentration of 2000 μM, resulting in a total of 9 concentrations from high to low (2000, 400, 80, 16, 3.2, 0.64, 0.128, 0.0256, 0.00512 μM). Subsequently, 0.5 μL of the test compound dilution was transferred into the 96-well plate containing the cells, with each well containing 100 μL of cell culture medium. […] Into the 96-well plate, the diluted test compounds and corresponding detection reagents were added, resulting in final test compound concentrations of 500 nM and 10 nM, respectively. The experimental procedure is described below using the diluted 2 μM test compound as an example.
0.5 μL of the aforementioned diluted compound of the present disclosure (including the compounds in Table 1, Table 2, and Examples 1-468) was added to the seeded cells in 100 μL of medium, yielding a final test compound concentration of 10 nM. After the cells were treated with the compounds of the present disclosure for a specified period, the cell viability assay reagent was added to the culture medium according to the kit's instructions to determine cell viability. […] All controls were treated using the same procedure as the compounds of the present disclosure. The growth inhibition curves for the compounds of the present disclosure were plotted using Prism GraphPad software, and the IC50 values were calculated therefrom.

[4] = system: Human neuroblastoma cell line (SK-N-AS); assay: Inhibition of SK-N-AS cell proliferation (CellTiter luminescent viability); settings: Table II2, EZH2 inhibitor-based, 96 hours; for inhibition at 0.01 µM: 10 nM, read-out: Inhibition Rate at 10 nM (%); for inhibition at 0.5 µM: 500 nM, read-out: Inhibition Rate at 500 nM (%)

Degradation of substrate protein EZH2 (substrate protein remaining %) (EZH2): A (0%≤substrate protein remaining %≤80%)
Structure (SMILES): CCCc1cc(C)[nH]c(=O)c1CNC(=O)c1cc(-c2ccc(N3CCN(Cc4ccc5c(c4)C(=O)N(N4CCC(=O)NC4=O)C5=O)CC3)nc2)cc2c1cnn2C(C)C [GT-08419, 6-(6-(4-((2-(2,4-dioxotetrahydropyrimidin-1(2H)-yl)-1,3-dioxoisoindolin-5-yl)methyl)piperazin-1-yl)pyridin-3-yl)-1-isopropyl-N-((6-methyl-2-oxo-4-propyl-1,2-dihydropyridin-3-yl)methyl)-1H-indazole-4-carboxamide]

Degradation of substrate protein EZH2 (substrate protein remaining %) (EZH2): A (0%≤substrate protein remaining %≤80%)
Structure (SMILES): CCCc1cc(C)[nH]c(=O)c1CNC(=O)c1cc(-c2ccc(N3CCC(N(C)Cc4ccc5c(c4)CN(N4CCC(=O)NC4=O)C5=O)CC3)nc2)cc2c1cnn2C(C)C [GT-08420, 6-(6-(4-(((2-(2,4-dioxotetrahydropyrimidin-1(2H)-yl)-1-oxoisoindolin-5-yl)methyl)(methyl)amino)piperidin-1-yl)pyridin-3-yl)-1-isopropyl-N-((6-methyl-2-oxo-4-propyl-1,2-dihydropyridin-3-yl)methyl)-1H-indazole-4-carboxamide]

Degradation of substrate protein EZH2 (substrate protein remaining %) (EZH2): A (0%≤substrate protein remaining %≤80%)
Structure (SMILES): CCN(c1cc(-c2ccc(N3CCN(Cc4ccc5c(c4)CN(N4CCC(=O)NC4=O)C5=O)CC3)cc2)cc(C(=O)NCc2c(C)cc(C)[nH]c2=O)c1C)C1CCOCC1 [GT-08510, N-((4,6-dimethyl-2-oxo-1,2-dihydropyridin-3-yl)methyl)-4′-(4-((2-(2,4-dioxotetrahydropyrimidin-1(2H)-yl)-1-oxoisoindolin-5-yl)methyl)piperazin-1-yl)-5-(ethyl(tetrahydro-2H-pyran-4-yl)amino)-4-methyl-[1,1′-biphenyl]-3-carboxamide]
inhibition at 0.01 µM [4]: 15 to 20%
inhibition at 0.5 µM [4]: 20 to 30%

Degradation of substrate protein EZH2 (substrate protein remaining %) (EZH2): A (0%≤substrate protein remaining %≤80%)
Structure (SMILES): CCCc1cc(C)[nH]c(=O)c1CNC(=O)c1cc(-c2ccc(N3CCN(Cc4ccc5c(c4)CN(N4CCC(=O)NC4=O)C5=O)CC3)nc2)cc2c1cnn2C(C)C [GT-08418, 6-(6-(4-((2-(2,4-dioxotetrahydropyrimidin-1(2H)-yl)-1-oxoisoindolin-5-yl)methyl)piperazin-1-yl)pyridin-3-yl)-1-isopropyl-N-((6-methyl-2-oxo-4-propyl-1,2-dihydropyridin-3-yl)methyl)-1H-indazole-4-carboxamide]

Degradation of substrate protein EZH2 (substrate protein remaining %) (EZH2): A (0%≤substrate protein remaining %≤80%)
Structure (SMILES): CCCc1cc(C)[nH]c(=O)c1CNC(=O)c1cc(-c2ccc(N3CCN(C4CCN(Cc5ccc6c(c5)CN(N5CCC(=O)NC5=O)C6=O)CC4)CC3)nc2)cc2c1cnn2C(C)C [GT-08422, 6-(6-(4-(1-((2-(2,4-dioxotetrahydropyrimidin-1(2H)-yl)-1-oxoisoindolin-5-yl)methyl)piperidin-4-yl)piperazin-1-yl)pyridin-3-yl)-1-isopropyl-N-((6-methyl-2-oxo-4-propyl-1,2-dihydropyridin-3-yl)methyl)-1H-indazole-4-carboxamide]
inhibition at 0.01 µM [4]: 5 to 10%
inhibition at 0.5 µM [4]: 20 to 30%

More lines, now with the values behind:

Structure (SMILES): CN(c1nccnc1CNc1nc(Nc2ccc(N3CCN(CC4CCN(c5ccc6c(c5)C(=O)N(N5CCC(=O)NC5=O)C6=O)CC4)CC3)cc2)ncc1C(F)(F)F)S(C)(=O)=O [GT-07468, N-(3-(((2-((4-(4-((1-(2-(2,4-dioxotetrahydropyrimidin-1(2H)-yl)-1,3-dioxoisoindolin-5-yl)piperidin-4-yl)methyl)piperazin-1-yl)phenyl)amino)-5-(trifluoromethyl)pyrimidin-4-yl)amino)methyl)pyrazin-2-yl)-N-methylmethanesulfonamide]
inhibition at 0.01 µM [1]: 20 to 30%
inhibition at 0.5 µM [1]: 80 to 100%
inhibition at 0.01 µM [2]: 30 to 40%
inhibition at 0.5 µM [2]: 80 to 100%
Degradation of substrate protein FAK (substrate protein remaining %) (FAK): A (0%≤substrate protein remaining %≤80%)
inhibition at 0.01 µM [3]: 20 to 30%
inhibition at 0.5 µM [3]: 50 to 60%

Structure (SMILES): CNC(=O)c1ccccc1Nc1cc(Nc2ccc(N3CCC(N(C)Cc4ccc5c(c4)CN(N4CCC(=O)NC4=O)C5=O)CC3)cc2OC)ncc1C(F)(F)F [GT-07647, 2-((2-((4-(4-(((2-(2,4-dioxotetrahydropyrimidin-1(2H)-yl)-1-oxoisoindolin-5-yl)methyl)(methyl)amino)piperidin-1-yl)-2-methoxyphenyl)amino)-5-(trifluoromethyl)pyridin-4-yl)amino)-N-methylbenzamide]
inhibition at 0.01 µM [1]: 20 to 30%
inhibition at 0.5 µM [1]: 40 to 60%
inhibition at 0.01 µM [2]: 40 to 50%
inhibition at 0.5 µM [2]: 80 to 100%
Degradation of substrate protein FAK (substrate protein remaining %) (FAK): A (0%≤substrate protein remaining %≤80%)
inhibition at 0.01 µM [3]: 40 to 50%
inhibition at 0.5 µM [3]: 70 to 80%

Structure (SMILES): CCN(c1cc(-c2ccc(N3CCN(C4CCN(CC5CCN(c6ccc7c(c6)C(=O)N(N6CCC(=O)NC6=O)C7=O)CC5)CC4)CC3)cc2)cc(C(=O)NCc2c(C)cc(C)[nH]c2=O)c1C)C1CCOCC1 [GT-08524, N-((4,6-dimethyl-2-oxo-1,2-dihydropyridin-3-yl)methyl)-4′-(4-(1-((1-(2-(2,4-dioxotetrahydropyrimidin-1(2H)-yl)-1,3-dioxoisoindolin-5-yl)piperidin-4-yl)methyl)piperidin-4-yl)piperazin-1-yl)-5-(ethyl(tetrahydro-2H-pyran-4-yl)amino)-4-methyl-[1,1′-biphenyl]-3-carboxamide]
Degradation of substrate protein EZH2 (substrate protein remaining %) (EZH2): A (0%≤substrate protein remaining %≤80%)
inhibition at 0.01 µM [4]: 15 to 20%
inhibition at 0.5 µM [4]: 20 to 30%

Structure (SMILES): CCN(c1cc(-c2ccc(N3CCN(C4CCN(CC5CCN(c6cccc7c6C(=O)N(N6CCC(=O)NC6=O)C7=O)CC5)CC4)CC3)cc2)cc(C(=O)NCc2c(C)cc(C)[nH]c2=O)c1C)C1CCOCC1 [GT-08525, N-((4,6-dimethyl-2-oxo-1,2-dihydropyridin-3-yl)methyl)-4′-(4-(1-((1-(2-(2,4-dioxotetrahydropyrimidin-1(2H)-yl)-1,3-dioxoisoindolin-4-yl)piperidin-4-yl)methyl)piperidin-4-yl)piperazin-1-yl)-5-(ethyl(tetrahydro-2H-pyran-4-yl)amino)-4-methyl-[1,1′-biphenyl]-3-carboxamide]
Degradation of substrate protein EZH2 (substrate protein remaining %) (EZH2): A (0%≤substrate protein remaining %≤80%)
